In US20040242886A1, “Monocyclic diazodioxide based Bcl-2 protein antagonists related applications” (priority 2003, published 2004) one finds CC50 and IC50 data, which are given here for 39 compounds.

One may read the IC50 as the concentration needed to halve the response being measured.

Molecules are shown by their SMILES. Read-outs that look alike come from different tables or passages of the source. Bounds are passed on as bounds.

Data set [1] has as its system cell. The conditions noted are these: cited from earlier work.
Data set [2] relates to A549 human lung cells expressing low Bcl-2 and high Bcl-XL levels. In words: Acute cytotoxicity (apoptotic activity), Alamar Blue viability, A549 cells. The conditions noted are these: Homo sapiens, A549, 4 h; read-out: LC 50 (μM) A549. The class given is cell-based. How it is done:
(§1) The biological activity of the compounds provided herein were assessed in cellular system by the method similar to the one described by Amundson et al. (Amundson, S. A. et al, Cancer Research 2000, 60, 6101-6110), which is incorporated herein by reference in its entirety. The compounds were tested for acute cytotoxicity (apoptotic activity) using two human cancer cell lines expressing high levels of either Bcl-2 or BCl-XL. HL60, human leukemic cells expressing high Bcl-2 and low BCl-XL levels, and A549 human lung cells expressing low Bcl-2 and high BCl-XL levels, were incubated with the compounds at concentrations between 0.5 and 1000 μg/mL for 4 hours at 37° C., 5% CO2. The number of viable cells were measured by mitochondrial transformation of Alamar Blue to a fluorescent dye. LC50 values for each test compound and controls are provided in the individual examples that follow.
(§2) The compounds provided herein were tested for acute cytoxicity (apoptotic activity) using two human cancer cell lines expressing high levels of either Bcl-2 or BCl-XL. HL-60 cells expressing high Bcl-2 and low Bcl-XL levels, and A549 human lung cells expressing low Bcl-2 and high Bcl-XL levels were incubated with the compounds provided herein at concentrations between 0.5 and 1000 μg/mL for 4 hours at 37° C., 5% CO2. The number of viable cells were measured by mitochondrial transformation of Alamar Blue to a fluorescent dye. As negative controls, the compounds were tested against the cell lines with low levels of Bcl-2 expression, viz., MDA-453 cells. LC50 values for each compound and controls were determined.
Background: Alamar Blue is a resazurin reagent that responds to reducing activity.

Data set [3] concerns HL60, human leukemic cells expressing high Bcl-2 and low Bcl-XL levels. The data set can be described thus: Acute cytotoxicity (apoptotic activity), Alamar Blue viability, HL-60 cells. It is filed as cell-based. The settings on record: Homo sapiens, HL-60, 4 h; read-out: LC 50 (μM) HL-60. The protocol:
as §1, §2

The subject of data set [4] is Bcl-2 and Bcl XL. The conditions noted are these: literature value, cited from earlier work.

Turning to `Cc1cc2c(C(C)C)c(O)c(O)c(C=O)c2c(O)c1-c1c(C)cc2c(C(C)C)c(O)c(O)c(C=O)c2c1O` [compound 1], the CC50 in data set [1] is 1.5 µM.
For `CCCC[C@H]1C(=O)O[C@H](C)[C@H](NC(=O)c2cccc(NC=O)c2O)C(=O)O[C@@H](C)[C@@H]1OC(=O)CC(C)C` [compound 2], in data set [1], the CC50 was 1.2 µM.
For `O=C(Nc1cc(S(=O)(=O)c2ccc(Cl)cc2)ccc1Cl)c1cc(Cl)cc(I)c1O` [compound 6, reference compound], the CC50 in data set [2] was above 200 µM; in data set [3] it was below 50 µM; in data set [1] (read-out: LC50 (cell), cell line not specified, literature value) it was around 30 µM. The IC50 in data set [4] (protein not specified) was 3.3 µM.
With `CC(C)Cc1cc(-c2ccc(-c3ccc(OCC(=O)O)c(CC(C)C)c3)c(Cc3cccc4ccccc34)c2)ccc1CCC(=O)O` [compound 7], the IC50 in data set [4] (Bcl-2 antagonist) was 0.114 µM.
As to `Cc1cc(Cl)n[n+]([O-])c1Cl` [compound 23], the CC50 in data set [2] and in data set [3] was above 200 µM in each case.
Take `CCCCS(=O)(=O)c1ccc(S(=O)(=O)CCCC)[n+]([O-])n1` [compound 24]: the results for the CC50 in data set [2] and in data set [3] were above 200 µM and 50 to 200 µM, respectively.
Consider `CC(C)(C)S(=O)(=O)c1ccc(S(=O)(=O)C(C)(C)C)[n+]([O-])n1` [compound 25], for which the figures for the CC50 in data set [2] and in data set [3] were above 200 µM and 50 to 200 µM, respectively.
On to `[O-][n+]1nc(Cl)ccc1SC1CCCCC1` [compound 26], for which the CC50 in data set [2] and in data set [3] was above 200 µM throughout.
For `O=S(=O)(c1ccc(Cl)n[n+]1[O-])C1CCCCC1` [compound 28], the CC50 in data set [2] is above 200 µM; in data set [3] it was below 50 µM.
For `[O-][n+]1ccccc1Cl` [compound 29], the CC50 in data set [2] and in data set [3] was above 200 µM throughout.
Consider `O=S(=O)(c1ccc(Sc2ccccc2)n[n+]1[O-])C1CCCCC1` [compound 30], for which the CC50 in data set [2] and in data set [3] was above 200 µM each time.
For the compound `CCOc1ccc(S(=O)(=O)C2CCCCC2)[n+]([O-])n1` [compound 31], the CC50 in data set [2] and in data set [3] was above 200 µM each time.
In the case of `[O-][n+]1nc(Cl)c2ccccc2c1Cl` [compound 33], the CC50 in data set [2] and in data set [3] was 50 to 200 µM each time.
Consider `O=S(=O)(c1ccccc1)c1ccc(S(=O)(=O)C2CCCCC2)[n+]([O-])n1` [compound 34], for which the CC50 is above 200 µM in data set [2] and below 50 µM in data set [3].
For the compound `[O-][n+]1cc(Cl)ccc1Cl` [compound 35], the CC50 in data set [2] and in data set [3] was above 200 µM each time.
As to `CCS(=O)(=O)c1ccc(S(=O)(=O)C2CCCCC2)[n+]([O-])n1` [compound 36], the CC50 in data set [2] is 50 to 200 µM; in data set [3], below 50 µM.
As for `O=S(=O)(c1ccc(Cl)c[n+]1[O-])C1CCCCC1` [compound 37], the CC50 in data set [2] and in data set [3] was above 200 µM throughout.
In the case of `CCSc1ccc(S(=O)(=O)C2CCCCC2)n[n+]1[O-]` [compound 38], the CC50 in data set [2] and in data set [3] was above 200 µM throughout.
As for `COc1ccccc1S(=O)(=O)c1ccc(S(=O)(=O)C2CCCCC2)[n+]([O-])n1` [compound 39], the CC50 in data set [2] is 50 to 200 µM; in data set [3], below 50 µM.
Turning to `O=S(=O)(c1ccccc1)c1ccc(Cl)n[n+]1[O-]` [compound 40], the CC50 in data set [2] is above 200 µM; in data set [3], below 50 µM.
As for `O=S(=O)(c1ccccc1)c1ccc(S(=O)(=O)C2CCCCC2)n[n+]1[O-]` [compound 41], the CC50 is above 200 µM in data set [2] and below 50 µM in data set [3].
With `O=S(=O)(c1ccc(S(=O)(=O)C2CCCCC2)[n+]([O-])n1)c1ccccc1Cl` [compound 42], the CC50 is 50 to 200 µM in data set [2] and below 50 µM in data set [3].
Turning to `COC(=O)c1ccccc1S(=O)(=O)c1ccc(S(=O)(=O)C2CCCCC2)[n+]([O-])n1` [compound 43], the CC50 in data set [2] was above 200 µM; in data set [3], below 50 µM.
As to `O=S(=O)(c1ccccc1)c1n[n+]([O-])c(O)c2ccccc12` [compound 44], the CC50 in data set [2] and in data set [3] was above 200 µM throughout.
Turning to `CCS(=O)(=O)c1n[n+]([O-])c(OC(=O)c2cccc(Cl)c2)c2ccccc12` [compound 45], the CC50 in data set [2] and in data set [3] was above 200 µM throughout.
As for `O=C(O)c1ccccc1Sc1ccc(SC2CCCCC2)[n+]([O-])n1` [compound 46], the CC50 in data set [2] and in data set [3] was above 200 µM each time.
`O=S(=O)(CCO)c1ccc(S(=O)(=O)C2CCCCC2)[n+]([O-])n1` [compound 47]: the CC50 in data set [2] and in data set [3] was above 200 µM each time.
For the compound `COC(=O)CCS(=O)(=O)c1ccc(S(=O)(=O)C2CCCCC2)[n+]([O-])n1` [compound 48], the CC50 is above 200 µM in data set [2] and below 50 µM in data set [3].
Regarding `Cc1ccc(S(=O)(=O)c2ccc(S(=O)(=O)C3CCCCC3)[n+]([O-])n2)cc1` [compound 49], the CC50 was above 200 µM in data set [2] and 50 to 200 µM in data set [3].
Regarding `O=S(=O)(c1ccc(O)cc1)c1ccc(S(=O)(=O)C2CCCCC2)[n+]([O-])n1` [compound 50], the CC50 in data set [2] is above 200 µM; in data set [3], 50 to 200 µM.
The corresponding values for `CC(=O)Oc1ccc(S(=O)(=O)c2ccc(S(=O)(=O)C3CCCCC3)[n+]([O-])n2)cc1` [compound 51] are above 200 µM and 50 to 200 µM.
As to `O=S(=O)(c1cc[n+]([O-])cc1)c1ccc(S(=O)(=O)C2CCCCC2)[n+]([O-])n1` [compound 53], the CC50 is above 200 µM in data set [2] and 50 to 200 µM in data set [3].
The corresponding values for `Nc1ccc(S(=O)(=O)c2ccc(S(=O)(=O)C3CCCCC3)[n+]([O-])n2)cc1` [compound 55] are above 200 µM and below 50 µM.
Consider `CC(=O)NCCS(=O)(=O)c1ccc(S(=O)(=O)C2CCCCC2)[n+]([O-])n1` [compound 56], for which the CC50 in data set [2] and in data set [3] was above 200 µM in each case.
`O=C(O)c1ccc(S(=O)(=O)c2ccc(S(=O)(=O)C3CCCCC3)[n+]([O-])n2)cc1` [compound 57]: the CC50 in data set [2] and in data set [3] was above 200 µM throughout.
With `CS(=O)(=O)Nc1ccc(S(=O)(=O)c2ccc(S(=O)(=O)C3CCCCC3)[n+]([O-])n2)cc1` [compound 58], the CC50 in data set [2] and in data set [3] was above 200 µM each time.
Consider `COC(=O)c1ccc(S(=O)(=O)c2ccc(S(=O)(=O)C3CCCCC3)[n+]([O-])n2)cc1` [compound 59], for which the CC50 in data set [2] was above 200 µM; in data set [3] it was below 50 µM.
Regarding `O=S(=O)(c1ccncc1)c1ccc(S(=O)(=O)C2CCCCC2)[n+]([O-])n1` [compound 60], the CC50 in data set [2] is above 200 µM; in data set [3], 50 to 200 µM.
The corresponding values for `O=S(=O)(c1ccc(-c2ccccc2)n[n+]1[O-])C1CCCCC1` [compound 61] are above 200 µM and above 200 µM.
